Legend:
Test in all cases: relative viability (nuclei count vs DMSO), 5 days (fraction); higher = more cells survive
Vemurafenib + Alpelisib = compound: CCCS(=O)(=O)Nc1ccc(F)c(C(=O)c2c[nH]c3ncc(-c4ccc(Cl)cc4)cc23)c1F [Vemurafenib] + Cc1nc(NC(=O)N2CCC[C@H]2C(N)=O)sc1-c1ccnc(C(C)(C)C(F)(F)F)c1 [Alpelisib] (partner 2 µM)
How it was run: (§1)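 Lung cancer cell lines were seeded in 1536-well plates and dosed by pin tool the next day, with either a single drug or a fixed anchor-drug dose combined with five library-drug doses (not always all listed) spaced in √10 steps. Five days later, one step fixed the cells and stained their nuclei (final 0.05% Triton X-100, 1% formaldehyde, 1 ug/ml Hoechst), and nuclei were counted on 4× images. Relative viability is the nuclei count in treated wells divided by the count in vehicle wells, and each value is the median of duplicate plates.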

OSI-027 + Alpelisib = compound: COc1cccc2cc(-c3nc([C@H]4CC[C@H](C(=O)O)CC4)n4ncnc(N)c34)[nH]c12 [OSI-027] + Cc1nc(NC(=O)N2CCC[C@H]2C(N)=O)sc1-c1ccnc(C(C)(C)C(F)(F)F)c1 [Alpelisib] (partner 2 µM)
How it was run: as §1

Vemurafenib + Navitoclax = compound: CCCS(=O)(=O)Nc1ccc(F)c(C(=O)c2c[nH]c3ncc(-c4ccc(Cl)cc4)cc23)c1F [Vemurafenib] + CC1(C)CCC(c2ccc(Cl)cc2)=C(CN2CCN(c3ccc(C(=O)NS(=O)(=O)c4ccc(N[C@H](CCN5CCOCC5)CSc5ccccc5)c(S(=O)(=O)C(F)(F)F)c4)cc3)CC2)C1 [Navitoclax] (partner 0.5 µM)
How it was run: as §1

OSI-027 + Foretinib = compound: COc1cccc2cc(-c3nc([C@H]4CC[C@H](C(=O)O)CC4)n4ncnc(N)c34)[nH]c12 [OSI-027] + COc1cc2c(Oc3ccc(NC(=O)C4(C(=O)Nc5ccc(F)cc5)CC4)cc3F)ccnc2cc1OCCCN1CCOCC1 [Foretinib] (partner 0.25 µM)
How it was run: as §1

Cell Line	relative viability (Vemurafenib + Alpelisib; first compound 0.03162 µM)	relative viability (Vemurafenib + Alpelisib; first compound 0.1 µM)	relative viability (Vemurafenib + Alpelisib; first compound 0.3162 µM)	relative viability (Vemurafenib + Alpelisib; first compound 1 µM)	relative viability (OSI-027 + Alpelisib; first compound 0.01 µM)	relative viability (OSI-027 + Alpelisib; first compound 0.03162 µM)	relative viability (OSI-027 + Alpelisib; first compound 0.1 µM)	relative viability (OSI-027 + Alpelisib; first compound 0.3162 µM)	relative viability (OSI-027 + Alpelisib; first compound 1 µM)	relative viability (Vemurafenib + Navitoclax; first compound 0.03162 µM)	relative viability (Vemurafenib + Navitoclax; first compound 0.1 µM)	relative viability (Vemurafenib + Navitoclax; first compound 0.3162 µM)	relative viability (Vemurafenib + Navitoclax; first compound 1 µM)	relative viability (OSI-027 + Foretinib; first compound 0.01 µM)	relative viability (OSI-027 + Foretinib; first compound 0.03162 µM)	relative viability (OSI-027 + Foretinib; first compound 0.1 µM)	relative viability (OSI-027 + Foretinib; first compound 0.3162 µM)	relative viability (OSI-027 + Foretinib; first compound 1 µM)
NCI-H727	0.519	0.49	0.849	0.574	0.567	0.63	0.491	0.419	0.378	0.518	0.366	0.613	0.438	0.601	1.03	0.863	0.812	0.398
201T	0.974	0.96	1.05	0.981	0.998	1	0.963	0.919	0.545	1.16	1.26	1.2	1.14	–	1.09	1.07	0.944	0.459
H3255	0.688	–	0.643	0.663	0.589	0.731	0.537	0.503	0.376	0.493	–	0.57	0.386	0.772	1.03	0.811	0.865	0.481
NCI-H1395	1.01	1.01	–	1.09	1.04	1.14	0.974	0.93	0.757	1.37	0.999	–	1.18	0.965	0.903	0.959	0.847	0.637
NCI-H1355	0.823	0.689	0.797	0.88	0.764	0.723	0.677	0.345	0.24	0.895	0.96	0.99	0.976	1.01	0.784	0.928	0.763	0.33
IA-LM	0.824	0.81	0.777	0.548	0.791	0.686	0.455	0.322	0.113	0.643	0.806	0.794	0.665	1.21	0.992	0.729	0.807	0.136
HCC-827	0.959	–	1.01	0.9	0.871	1.03	0.921	0.736	0.281	0.967	–	1	1.02	1.19	1.03	0.991	0.855	0.411
NCI-H2085	0.956	0.826	0.902	1	0.927	0.925	0.835	0.727	0.592	1.05	0.972	1.23	1.09	1.09	1.01	0.895	1.05	0.591
NCI-H1755	0.906	0.83	0.869	0.791	0.92	0.849	0.917	0.8	0.353	0.937	0.953	1.05	0.998	0.859	0.92	0.835	0.809	0.522
PC-14	0.881	–	0.907	0.903	0.855	0.641	1.01	1.03	0.65	0.915	–	0.977	0.937	0.937	0.843	1.03	0.958	0.847
NCI-H3122	0.814	0.761	0.896	0.862	0.711	0.762	0.657	0.405	0.284	1.04	0.993	1.02	1.1	1.02	0.998	1.03	0.98	0.45
SK-LU-1	0.996	0.96	0.682	0.758	1.25	0.978	0.64	0.394	0.304	0.914	0.74	0.751	0.564	0.911	0.816	0.586	0.433	0.28
HCC-44	0.761	0.755	0.784	0.795	0.795	0.775	0.738	0.574	0.215	0.879	0.931	0.973	1.03	–	–	–	–	–
NCI-H1703	0.353	0.318	0.292	0.301	0.32	0.285	0.284	0.279	0.238	1.19	1.24	0.863	0.933	0.324	0.336	0.291	0.429	0.324
LCLC-103H	0.901	0.883	1.02	1.04	0.852	0.922	0.991	0.877	0.767	–	–	–	–	0.693	0.658	0.786	0.666	0.334
NCI-H1563	0.874	0.935	0.904	0.949	0.983	0.888	0.82	0.673	0.759	–	–	–	–	0.937	0.857	0.909	0.839	0.854
NCI-H661	0.43	0.478	0.409	0.58	0.482	0.671	0.41	0.5	0.33	–	–	–	–	0.984	0.893	1.03	0.975	0.599
SW 900	–	–	–	–	–	–	–	–	–	–	–	–	–	–	0.644	0.725	0.873	0.405
NCI-H1623	–	–	–	–	–	–	–	–	–	–	–	–	–	0.876	0.767	0.671	0.595	0.391
NCI-H1650	–	–	–	–	–	–	–	–	–	1.12	–	1.18	1.15	1.42	1.21	1.19	1.25	0.797
ChaGo-K-1	–	–	–	–	–	–	–	–	–	0.949	0.809	–	0.958	0.977	0.854	0.907	0.8	0.504
ABC-1	0.916	0.878	1.25	1.14	0.98	0.921	0.903	0.628	0.537	–	–	–	–	1.13	0.996	0.904	0.652	0.567
